Literature values in article PMC10239758 (European journal of medicinal chemistry, 2023).
≈ marks a conversion by molar mass, not a printed value.

Test system: Mtb strain H37Rv
Conditions: cited from earlier work

For Cc1cc(C)c2cc(C(=O)NC3CCCCCC3)[nH]c2c1 [Compound 6], the “MIC H37Rv” value is listed as 3.9 ng/mL (≈ 0.0137 µM).
